Measurements published in patent US6479293B1, “Temperature indicating material and temperature monitoring member” (Toshiba Tec Kabushiki Kaisha, priority 1999, dated 2002).

Protocol: The solubility of propyl gallate (PG) in molten cyclododecanol (CD) was studied. […] Here, temperature indicating members were prepared by adding cylododecanol (CD) in an amount permitting dissolution of 8 times the amount (Example 3), 4 times the amount (Example 4), twice the amount (Example 5), 1.2 times the amount (Example 6) and 0.8 time the amount (Example 7) of 1 part by weight of propyl gallate (PG), respectively. […] As comparative examples, a temperature indicating material free of cyclododecanol (CD) and that containing 5 parts by weight of 1-docosanol, which is a linear saturated alcohol, instead of cyclododecanol (CD) were prepared in Comparative Example 4 and Comparative Example 5, respectively.

| Solubility | Solubility of propyl gallate (PG) in molten cyclododecanol (CD) | Structure (SMILES) |
| --- | --- | --- |
| 2 | – | O=C(c1ccc(O)cc1)c1ccc(O)c(O)c1O [Example 2344, 2,3,4,4′-tetrahydroxybenzophenone] |
| 3 | – | CC(C)(c1ccc(O)cc1)c1ccc(O)cc1 [HBA, bisphenol A] |
| 10 | – | CCCCCCCCCCCCOC(=O)c1cc(O)c(O)c(O)c1 [LG, lauryl gallate] |
| 8 | at least 0.8 g | CCCOC(=O)c1cc(O)c(O)c(O)c1 [PG, propyl gallate] |
